Measured values published in patent US12570675B2, “Boronic acid compounds” (LG CHEM, LTD., priority 2020, dated 2026).
pIC50: −log10 of the molar value.

The compounds below were run against Proteasome chymotrypsin-like activity (S26 protein from RPMI8226 cells) (Homo sapiens, UniProt P28074). Conditions: S26 protein from RPMI8226 cell extract 2 ug/well, substrate 20 uM, 37° C., 90 minutes; read-out: Proteasome chymotrypsin-like activity inhibition IC50.
Assay type: biochemical
In short: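 RPMI8226 myeloma cell lysate (S26 fraction, 20 mM Tris-HCl pH 8.0; 2 ug/well) incubated with compound serially diluted from 10 uM (0.5% DMSO) and 20 uM Suc-LLVY-AMC (chymotrypsin-like) or Z-LLE-AMC (caspase-like) for 90 min at 37 °C. Fluorescence read; IC50 from % of uninhibited signal.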

Chain of Proteasome chymotrypsin-like activity (S26 protein from RPMI8226 cells) (P28074 60-263 limits assumed): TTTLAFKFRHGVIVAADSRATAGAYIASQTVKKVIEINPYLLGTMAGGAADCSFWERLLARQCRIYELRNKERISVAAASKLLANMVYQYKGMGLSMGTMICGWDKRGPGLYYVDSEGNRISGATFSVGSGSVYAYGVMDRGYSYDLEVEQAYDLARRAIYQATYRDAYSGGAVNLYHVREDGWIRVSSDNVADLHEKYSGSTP

Row | SMILES | pIC50
1 | CC(C)C[C@H](NC(=O)C1(Cc2ccccc2)CC(CNCc2cc(Cl)ccc2Cl)=NO1)B(O)O (stereo partly drawn) [Example 146, ((1R)-1-(5-benzyl-3-(((2,5-dichlorobenzyl)amino)methyl)-4,5-dihydroisoxazol-5-carboxamido)-3-methylbutyl)boronic acid] | > 7.60
2 | CC(C)C[C@H](NC(=O)C1(Cc2ccccc2)CC(CNC(=O)c2ccccc2-c2ccccc2)=NO1)B(O)O (stereo partly drawn) [Example 97, ((1R)-1-(3-([1,1′-biphenyl]-2-carboxamidomethyl)-5-benzyl-4,5-dihydroisoxazol-5-carboxamido)-3-methylbutyl)boronic acid] | > 8.00
3 | Cc1cn2cccc(C(=O)NCC3=NOC(Cc4ccccc4)(C(=O)N[C@@H](CC(C)C)B(O)O)C3)c2n1 (stereo partly drawn) [Example 139, ((1R)-1-(5-benzyl-3-((2-methylimidazo[1,2-a]pyridin-8-carboxamido)methyl)-4,5-dihydroisoxazol-5-carboxamido)-3-methylbutyl)boronic acid] | > 8.00
4 | CC(C)C[C@H](NC(=O)C1(Cc2ccccc2)CC(CNC(=O)c2ccc(-c3ccccc3)cc2)=NO1)B(O)O (stereo partly drawn) [Example 94, ((1R)-1-(3-([1,1′-biphenyl]-4-carboxamidomethyl)-5-benzyl-4,5-dihydroisoxazol-5-carboxamido)-3-methylbutyl)boronic acid] | > 8.00
5 | CC(C)C[C@H](NC(=O)C1(Cc2ccccc2)CC(COc2cccc(Cl)c2)=NO1)B(O)O (stereo partly shown) [Example 258] | > 8.00
6 | CC(C)C[C@H](NC(=O)C1CC(c2ccccc2OC(F)(F)F)=NO1)B(O)O (stereo partly drawn) [Example 39, ((1R)-3-methyl-1-(3-(2-(trifluoromethoxy)phenyl)-4,5-dihydroisoxazol-5-carboxamido)butyl)boronic acid] | > 6.30
7 | Cc1nn(C(C)C)c(C(=O)NCC2=NOC(Cc3cccc(Cl)c3)(C(=O)N[C@@H](CC(C)C)B(O)O)C2)c1Cl (stereo partly drawn) [Example 248, ((1R)-1-(3-((4-chloro-1-isopropyl-3-methyl-1H-pyrazol-5-carboxamido)methyl)-5-(3-chlorobenzyl)-4,5-dihydroisoxazol-5-carboxamido)-3-methylbutyl)boronic acid] | > 8.00
8 | CC(C)C[C@H](NC(=O)C1(Cc2ccccc2)CC(COc2cccc3ccccc23)=NO1)B(O)O (stereo partly shown) [Example 278] | > 8.00
9 | CC(C)C[C@H](NC(=O)C1(Cc2ccccc2)CC(COCc2cccn3ccnc23)=NO1)B(O)O (stereo partly shown) [Example 266] | > 8.00
10 | CC(C)C[C@H](NC(=O)C1(Cc2ccccc2)CC(CNC(=O)c2cc(C(C)C)nn2C(C)C)=NO1)B(O)O (stereo partly drawn) [Example 227, ((1R)-1-(5-benzyl-3-((1,3-diisopropyl-1H-pyrazol-5-carboxamido)methyl)-4,5-dihydroisoxazol-5-carboxamido)-3-methylbutyl)boronic acid] | > 8.00
11 | CC(C)[C@H](NC(=O)C1(Cc2ccccc2)CC(CNC(=O)c2cccc(Cl)n2)=NO1)B(O)O (stereo partly drawn) [Example 319, ((1R)-1-(5-benzyl-3-((6-chloropicolinamido)methyl)-4,5-dihydroisoxazol-5-carboxamido)-2-methylpropyl)boronic acid] | > 8.00
12 | O=C(NCC1=NOC(Cc2ccccc2)(C(=O)N[C@@H](Cc2ccccc2)B(O)O)C1)c1cccc(C(F)(F)F)c1 (stereo partly drawn) [Example 281, ((1R)-1-(5-benzyl-3-((3-(trifluoromethyl)benzamido)methyl)-4,5-dihydroisoxazol-5-carboxamido)-2-phenylethyl)boronic acid] | > 8.00
13 | CC(C)C[C@H](NC(=O)C1CC(CNC(=O)Cc2ccccc2)=NO1)B(O)O (stereo partly drawn) [Example 79, ((1R)-3-methyl-1-(3-((2-phenylacetamido)methyl)-4,5-dihydroisoxazol-5-carboxamido)butyl)boronic acid] | > 7.00
14 | Cc1cc(COCC2=NOC(Cc3ccccc3)(C(=O)N[C@@H](CC(C)C)B(O)O)C2)ccn1 (stereo partly shown) [Example 276] | > 8.00
15 | CC(C)[C@H](NC(=O)C1(Cc2ccccc2)CC(CNC(=O)c2nccc3ccccc23)=NO1)B(O)O (stereo partly drawn) [Example 290, ((1R)-1-(5-benzyl-3-((isoquinolin-1-carboxamido)methyl)-4,5-dihydroisoxazol-5-carboxamido)-2-methylpropyl)boronic acid] | > 8.00
16 | Cc1cc(COCC2=NOC(Cc3ccccc3)(C(=O)N[C@@H](Cc3ccccc3)B(O)O)C2)ccn1 (stereo partly drawn) [Example 277, ((1R)-1-(5-benzyl-3-(((2-methylpyridin-4-yl)methoxy)methyl)-4,5-dihydroisoxazol-5-carboxamido)-2-phenylethyl)boronic acid] | > 8.00
17 | CC(C)C[C@H](NC(=O)C1(Cc2ccccc2)CC(CNC(=O)C2CCCc3ccccc32)=NO1)B(O)O (stereo partly drawn) [Example 108, ((1R)-1-(5-benzyl-3-((1,2,3,4-tetrahydronaphthalen-1-carboxamido)methyl)-4,5-dihydroisoxazol-5-carboxamido)-3-methylbutyl)boronic acid] | > 8.00

Row | SMILES | pIC50
18 | Cc1cccc(CC2(C(=O)N[C@@H](CC(C)C)B(O)O)CC(CNC(=O)c3cccn4ccnc34)=NO2)c1 (stereo partly drawn) [Example 238, ((1R)-1-(3-((imidazo[1,2-a]pyridin-8-carboxamido)methyl)-5-(3-methylbenzyl)-4,5-dihydroisoxazol-5-carboxamido)-3-methylbutyl)boronic acid] | > 8.00
19 | CC(C)C[C@H](NC(=O)C1(C(F)(F)c2ccccc2)CC(CNC(=O)c2cccn3ccnc23)=NO1)B(O)O (stereo partly drawn) [Example 156, ((1R)-1-(5-(difluoro(phenyl)methyl)-3-((imidazo[1,2-a]pyridin-8-carboxamido)methyl)-4,5-dihydroisoxazol-5-carboxamido)-3-methylbutyl)boronic acid] | > 7.60
20 | COc1cccc(C(=O)NCC2=NOC(Cc3ccccc3)(C(=O)N[C@@H](CC(C)C)B(O)O)C2)c1 (stereo partly shown) [Example 284] | > 8.00
21 | CC(C)C[C@H](NC(=O)C1(C(C)c2ccccc2)CC(CNC(=O)c2nccc3ccccc23)=NO1)B(O)O (stereo partly drawn) [Example 136, ((1R)-1-(3-((isoquinolin-1-carboxamido)methyl)-5-(1-phenylethyl)-4,5-dihydroisoxazol-5-carboxamido)-3-methylbutyl)boronic acid] | > 8.00
22 | CC(C)C[C@H](NC(=O)C1(Cc2ccccc2)CC(CNC(=O)CCc2ccccc2)=NO1)B(O)O (stereo partly drawn) [Example 110, ((1R)-1-(5-benzyl-3-((3-phenylpropanamido)methyl)-4,5-dihydroisoxazol-5-carboxamido)-3-methylbutyl)boronic acid] | > 7.60
23 | CC(C)C[C@H](NC(=O)C1(Cc2ccccc2)CC(CNC(=O)c2cc(-c3ccncc3)nn2C(C)C)=NO1)B(O)O (stereo partly drawn) [Example 229, ((1R)-1-(5-benzyl-3-((1-isopropyl-3-(pyridin-4-yl)-1H-pyrazol-5-carboxamido)methyl)-4,5-dihydroisoxazol-5-carboxamido)-3-methylbutyl)boronic acid] | > 8.00
24 | CC(C)C[C@H](NC(=O)C1(Cc2ccccc2)CC(CNC(=O)c2cccc3ncnn23)=NO1)B(O)O (stereo partly shown) [Example 312] | > 7.60
25 | CC(C)C[C@H](NC(=O)C1CC(c2ccc(Oc3ccccc3)cc2)=NO1)B(O)O (stereo partly drawn) [Example 44, ((1R)-3-methyl-1-(3-(4-phenoxyphenyl)-4,5-dihydroisoxazol-5-carboxamido)butyl)boronic acid] | > 6.30
26 | Cc1ncc(C(=O)NCC2=NOC(Cc3ccccc3)(C(=O)N[C@@H](CC(C)C)B(O)O)C2)s1 (stereo partly drawn) [Example 235, ((1R)-1-(5-benzyl-3-((2-methylthiazol-5-carboxamido)methyl)-4,5-dihydroisoxazol-5-carboxamido)-3-methylbutyl)boronic acid] | > 8.00
27 | COc1ccc(COCC2=NOC(Cc3ccccc3)(C(=O)N[C@@H](Cc3ccccc3)B(O)O)C2)cc1 (stereo partly drawn) [Example 275, ((1R)-1-(5-benzyl-3-(((4-methoxybenzyl)oxy)methyl)-4,5-dihydroisoxazol-5-carboxamido)-2-phenylethyl)boronic acid] | > 7.30
28 | CC(C)C[C@H](NC(=O)C12CCCC1C(CNC(=O)c1cccn3ccnc13)=NO2)B(O)O (stereo partly drawn) [Example 199, ((1R)-1-(3-((imidazo[1,2-a]pyridin-8-carboxamido)methyl)-3a,5,6,6a-tetrahydro-4H-cyclopenta[d]isoxazol-6a-carboxamido)-3-methylbutyl)boronic acid] | > 6.00
29 | CC(C)C[C@H](NC(=O)C1(Cc2ccccc2)CC(c2cccc(-c3nccc4ccccc34)c2)=NO1)B(O)O (stereo partly drawn) [Example 36, ((1R)-1-(5-benzyl-3-(3-(isoquinolin-1-yl)phenyl)-4,5-dihydroisoxazol-5-carboxamido)-3-methylbutyl)boronic acid] | > 6.60
30 | CC(C)C[C@H](NC(=O)C1CC(c2ccc3ncccc3c2)=NO1)B(O)O (stereo partly drawn) [Example 30, ((1R)-3-methyl-1-(3-(quinolin-6-yl)-4,5-dihydroisoxazol-5-carboxamido)butyl)boronic acid] | > 6.00
31 | CC[C@H](NC(=O)C1(Cc2ccccc2)CC(CNC(=O)c2nccc3ccccc23)=NO1)B(O)O (stereo partly drawn) [Example 289, ((1R)-1-(5-benzyl-3-((isoquinolin-1-carboxamido)methyl)-4,5-dihydroisoxazol-5-carboxamido)propyl)boronic acid] | > 7.60
32 | CC(C)C[C@H](NC(=O)C1(Cc2cccc(Cl)c2)CC(CNC(=O)c2nccc3ccccc23)=NO1)B(O)O (stereo partly drawn) [Example 175, ((1R)-1-(5-(3-chlorobenzyl)-3-((isoquinolin-1-carboxamido)methyl)-4,5-dihydroisoxazol-5-carboxamido)-3-methylbutyl)boronic acid] | > 8.00
33 | CC(C)C[C@H](NC(=O)C1CC(c2cccc(Oc3ccccn3)c2)=NO1)B(O)O (stereo partly drawn) [Example 41, ((1R)-3-methyl-1-(3-(3-(pyridin-2-yloxy)phenyl)-4,5-dihydroisoxazol-5-carboxamido)butyl)boronic acid] | > 6.60
34 | CC(C)C[C@H](NC(=O)C1(Cc2cccc(OC(F)(F)F)c2)CC(CNC(=O)c2nccc3ccccc23)=NO1)B(O)O (stereo partly drawn) [Example 216, ((1R)-1-(3-((isoquinolin-1-carboxamido)methyl)-5-(3-(trifluoromethoxy)benzyl)-4,5-dihydroisoxazol-5-carboxamido)-3-methylbutyl)boronic acid] | > 8.00
